Data on two molecules can be found in patent US20250034575A1, “OLIGONUCLEOTIDES FOR DGAT2, FASN, OPN, AND NOX4 MODULATIONS” (UNIVERSITY OF MASSACHUSETTS, priority 2023, published 2025).

For one series, the system named is FASN. Kind of series: Cholesterol conjugated Fasn-2314 in Tgfb activated Lx2 cells, Western blotting. Type of series: cell-based, human. The following applies: 1.5 uM, Tgfb 5 ng/ml. As to the method:
(§1) In the analysis of protein expression, cell lysates were homogenized in a RIPA buffer (25 mM Tris, pH 7.4 0.15 M NaCl 0.1% Tween 20) with 1:100 protease inhibitor (78442, Thermo Scientific). The lysates were denatured by boiling, separated on a 4 to 15% SDS/polyacrylamide gel electrophoresis gel (567-1094, Bio-Rad), and transferred to a nitrocellulose membrane (1704159, Bio-Rad). The membrane was blocked using TBS-T with 5% BSA for 1 hour at room temperature and incubated using p-SMAD3 (ab52903, Abcam), type I collagen (1310-30, Southern Biotech), and GAPDH (5174, Cell Signaling). The blot was further washed in TBS-T and incubated at room temperature with its corresponding secondary antibody for 30 minutes. Following another wash, the blot was incubated with ECL (32106, Thermo Scientific) and visualized with the ChemiDox XRS+ image-forming system.
Moreover, the protein level of Smad3 was also measured for untreated control, cholesterol conjugated non-targeting control, and cholesterol conjugated Fasn-2314. 1×10^6 of human Lx2 cells were plated in 10 cm2 plates and treated with 1.5 uM cholesterol conjugated Fasn-2314. 24 hrs post treatment Lx2 cells were activated with Tgfb (5 ng/ml) to induce fibrotic phenotype. 48 hrs post activation cells were harvested and processed for Western blotting analysis.

In the next series the test system is LX2 human stellate cells. Kind of series: Tgf-β driven activation of LX2 human stellate cells with Fasn inhibitor. The format is cell-based. As to the method:
In vitro screening of LX2 human stellate cells was executed by plating 500,000 cells/well in 6-well plates overnight at 37° C., 5% CO2 in 0% FBS DMEM medium (11885-076, Gibco). Following a 4-hour pre-treatment with 1 nM or 100 nM Fasn inhibitor (TVB-3664-S8563, Selleck Chemicals), stellate cell activation was initiated by adding recombinant human Tgf-β (240-B-002, R & D Systems) for a 5 ng/mL final concentration. After 48 hours, protein and mRNA were isolated from the cells and further analysis was performed.
Frozen liver tissue punches (25-50 mg) were homogenized in TRIzol (15596018, Thermo Scientific) using the Qiagen TissueLyser II. Chloroform was added to the homogenate and centrifuged for 15 minutes at maximum speed. The clear upper layer was added to an equal volume of 100% isopropanol and incubated for 1 h at 4° C. After 10 min of centrifugation at maximum speed, the supernatant was discarded, and 70 to 75% ethanol was added to wash the pellet. After 5 min of centrifugation at maximum speed, the supernatant was discarded, and the pellet was briefly dried in the hood prior to resuspension in double-distilled water. RNA concentration was measured via the Thermo Scientific NanoDrop2000 spectrophotometer. Complementary DNA was then synthesized from 1 μg of total RNA using iScript cDNA Synthesis Kit (1708890, Bio-Rad) and Bio-Rad T100 thermocycler. Quantitative RT-PCR was performed using iQ SybrGreen Supermix (4368708, Applied Biosystems) on the Bio-Rad CFX96 C1000 Touch Thermal Cycler and analyzed.
as §1
To investigate the role of palmitate production in stellate cell activation, LX2 human stellate cells were treated with a validated, potent and specific small molecule inhibitor of Fasn, TVB-3664, at a final concentration of either 1 nM or 100 nM for 4 hours. Cells were then subjected to 5 ng/mL Tgf-β, a strong stimulator of stellate cell activation. Forty-eight hours later, the morphology of activated stellate cells, with increased cell size and elongation of spindle-like structures, was easily observed in Tgf-β treated cells.

The mark [1] stands for this setting: LX2 cells, 1 nM or 100 nM, 4 hours, then 5 ng/mL Tgf-β, 48 hours.

Turning to “FASN 2314: siRNA targeting human FASN; antisense SEQ ID NO: 56, TegChol sense SEQ ID NO: 57 (sense CCGAGUACAAUGUCAA; antisense UUGACAUUGUACUCGGCGGUU; sugars by position and backbone not given here; 2'-F/2'-OMe modifications not assigned, TegChol cholesterol on sense, further chemistry not fully specified)”, in the series with FASN, the “LC3II protein (autophagy)” value is on record as “accumulation”; the “activation and collagen production in Tgfb treated stellate cells” value is listed as “blunted”; the “p62 protein (autophagy)” value is “accumulation”; the “phosphorylation of SMAD3” value is “blunted”.
In the case of `COCc1[nH]c(C(F)(F)F)nc1-c1cc(C(=O)N2CC(c3ccc(C#N)cc3)C2)c(C)cc1C` [TVB-3664], in the series on LX2 human stellate cells (setting [1]), the “Tgf-β-induced type 1 collagen protein expression” value is given as “blocked”, the “mRNA levels of Acta2” value is “reduction”, the “mRNA levels of Col1a1” value is given as “reduction” and the “morphological change of activated stellate cells” value was “severely inhibited”. Besides, the “phosphorylated SMAD3 protein” value with LX2 human stellate cells (setting [1]) is recorded as “reduced”. In the series with LX2 human stellate cells (Tgf-β activated LX2 cells), the Cpt1a gene expression result is given as “reduction”, the Hsp47 gene expression result was “reduction”, the Nrf2 gene expression result is “remarkable upregulation” and the Pgc-1α gene expression result is “remarkable upregulation”. Moreover, in the series on LX2 human stellate cells (Tgf-β activated LX2 cells), the Pparα gene expression entry is recorded as “remarkable upregulation”, the Sirt1 gene expression entry was “remarkable upregulation”, the anti-fibrotic effect result was “strong anti-fibrotic effect” and the “expression of Nox4” value is recorded as “reduction in expression”.
